Data published in patent publication US11573241B2, “Total cellular iron as a marker of cancer stem cells and uses thereof” (Institut National de la Sante et de la Recherche Medicale …, priority 2016, dated 2023).
Where a SMILES comes first, the peptide text is derived from it. The star is where a group is joined. Cbz = O=C(OCc1ccccc1)*; CH2F = FC*

How the values were obtained:
HMLER cells = test: Flow cytometry of CD44 and CD24 expression after TGF beta; assay type: cell-based, human
Protocol: FIG. 11. […] Briefly, HMLER cells were treated as indicated with TGF beta in the presence or absence of transferrin. CD44 and CD24 expression were assessed by flow cytometry. CD44^+ indicates the percent of CD44^high/CD24^Low/− population gated.

iCSCL-10A2 cells = test: Annexin V/PI assay; assay type: cell-based; conditions: Sal or AM5 0.5 μM, 72 h
Protocol: (§1) Annexin V/PI assay. Cells were treated as indicated. After treatment, cell death was quantified using Annexin V-FITC/Propidium Iodide (PI) assay according to the manufacturer's protocol (FITC Annexin V Apoptosis Detection Kit II, 556570, BD Pharmingen™) and analyzed by a LSRFortessa™ flow cytometer (BD Bioscience, San Jose, Calif.). The data were processed using Cell Quest software (BD Biosciences).

HMLER CD24^low cells [1] = test: Annexin V/PI assay; assay type: cell-based, human; conditions: 48 h
Protocol: as §1

[2] = tested on: patient-derived xenografts (PDX 1 and 2); assay type: in vivo, NOD/SCID mice; conditions: intra-peritoneal, 4 weeks
Text: Patient derived xenografts (PDXs). PDXs were established as previously described in Charafe-Jauffret et al., Cancer Res. 73, 7290-7300 (2013) from tissue samples collected prospectively at the Institut Paoli-Calmettes (IPC). Samples of human origin and associated data were obtained from the IPC/CRCM Tumor Bank that operates under authorization #AC-2007-33 granted by the French Ministry of Higher Education and Research. Before scientific use of samples and data, patients were appropriately informed and asked to consent in writing, in compliance with French and European regulations. The project was approved by the IPC Institutional Review Board. Cells from 2 different patient-derived xenografts (PDX 1 and 2) were transplanted orthotopically into fat pads of 4-week-old female non-obese diabetic/severe combined immunodeficient (NOD/SCID) mice (NOD.CB17-Prkdcscid/J, Charles River France) after mechanical treatment and enzymatic digestion using collagenase/hyaluronidase (StemCell Technologies) to generate single-cell suspension suitable for implantation in vivo. PDXs were primarily established as previously described in Caraft-Jauffret et al., and evaluated for ALDEFLUOR-positive CSCs. We injected single cancer cells into fat pads of NOD/SCID mice and monitored tumor growth. When tumor size reached approximately 150 mm^3, Sal and AM5 treatments were performed as indicated above for FIGS. 14 and 15. Tumor growth was compared with that of docetaxel and placebo-treated controls. After 4 weeks of treatment, the animals were sacrificed and the proportion of ALDEFLUOR-positive CSCs was measured in each residual tumor. All animal studies were approved by the French Ministry of Higher Education and Research (authorization number D130554) and ethical committee (number 14), of Aix-Marseille Université. No randomization was used and experimenters were blinded to drug treatments and tissue analyses.
Aldefluor assay. The analysis was processed on single-cell suspension from the PDXs obtained as described above. The ALDEFLUOR Kit (Stemcell™ Technologies) was used to isolate the population with high aldehyde dehydrogenase enzymatic activity using an LSR2 cytometer (Becton Dickinson Biosciences), as previously described in Charafe-Jauffret et al. To eliminate cells of mouse origin from the PDXs, we used staining with an anti-H2Kd antibody (BD Biosciences, 1:200, 20 min on ice) followed by staining with a secondary antibody labeled with phycoerythrin (PE; Jackson Laboratories, 1:250, 20 min on ice).

[3] = tested on: cells from treated PDX 1 and 2; test: Limiting dilution assay, tumor-seeding capacity (ELDA); assay type: in vivo, NOD/SCID mice; conditions: re-implantation into secondary mice
Text: Limiting dilution assay. Cells from 4-week treated mice were re-implanted into one to four secondary NOD/SCID mice with injection of 10, 50, 500 or 5000 cells for each treated tumor to functionally evaluate the proportion of residual CSCs in each treatment group (Unt., Doc, Sal, AM5) for the PDX 1 and 2. Each mouse that developed a tumor reaching a size of 10 mm was considered as a tumor-bearing mouse.
Estimation of number of CSCs in vivo. The number of mammary gland outgrowths obtained in a fat pad after cell re-implantation is currently used to evaluate the number of stem cells able to repopulate this fat pad. It is based on self-renewal and differentiation abilities, two hallmarks of stem cells. In the same manner, estimation of the number of CSCs can be obtained from tumor outgrowth data collected after limited dilution re-implantation of each group of treatments, based on tumor-initiating capacities of CSCs. For calculation, an online tool is available using Extreme Limiting Dilution Analysis (ELDA) (http://bioinf.wehi.edu.au/software/elda/) for limiting dilution analysis based on the Poisson single-hit model according to the number of outgrowths observed and the number of pat pad re-implanted for each cell dilution.

HMLER CD24^low cells [4] = test: Immunoblotting of iron homeostasis regulatory proteins; assay type: cell-based, human; conditions: 24 h
MCF-7 cells [5] = test: Flow cytometry of CD44 and CD24 expression after OSM; assay type: cell-based, human; conditions: OSM 100 ng/ml, 48 h
Protocol: FIG. 8. Knock down of ferritin expression interferes with the OSM-mediated induction of CD44^highCD24^low/− in MCF-7 cells. MCF-7 were transfected with siRNA control or siRNA specifically targeting ferritin mRNA (FTH1) during 48 h and then the cells were incubated with OSM (100 ng/ml) for 48 h. a. Analysis of CD44 and CD24 expression by flow cytometry. Left panel, CSC indicates the percent of CD44^high/CD24^Low or negative (Low/−) population gated. Right panels, histogram representations of CD44 or CD24 expression (dark grey), or by the isotype control (light grey). b. Graphs representing the percent mean of CD44^high/CD24^Low/− population gated. c. Graphs representing the mean fluorescence intensity (IF) of CD24 and CD44, respectively. d. Quantification of the ALDH+ population in MCF-7 cells treated as indicated above, and measured by flow cytometry. Bars and error bars correspond to mean values and s.d. of two biological replicates, respectively. **P<0.01, ns, not significant, Student's t-test.
Small interfering RNA transfection. Suitable small interfering RNAs (siRNA) were designed with the Qiagen RNA interference designer tool for specific down-regulation of FTH1. The sequence used for FTH1 was 5′-[…]-3′ (S100300251) targeting the sequence following 5′-[…]-3′ and a negative control siRNA for FTH1 (5′-[…]-3′, (S103089212). Subconfluent cells were transfected with siRNA in Opti-MEM using the Oligofectamine™ reagent (Invitrogen) for 48 h. Then, cells were treated with OSM (100 ng/mL for 48 h) prior to protein or RNA extraction and flow cytometry analysis for markers as indicated.

MCF-7 cells [6] = test: Immunoblotting of EMT markers and ferritin after OSM; assay type: cell-based, human; conditions: OSM 100 ng/ml
Protocol: FIG. 7. Knock down of ferritin expression interferes with the OSM-mediated induction of EMT in MCF-7 cells. left, Immunoblotting showing levels of EMT markers in MCF-7 cells treated or not with 100 ng/ml of OSM for 72 h. right Immunoblotting showing levels of ferritin and fibronectin proteins in MCF-7 cells transfected with siRNA control (scramble) or siRNA targeting specifically ferritin mRNA (FTH1) during 48 h and then the cells were incubated with OSM (100 ng/ml) for 48 h. Beta-tubulin is used as loading control. MCF-7 were transfected.
Immunoblotting. Cells were treated as indicated, then washed twice with PBS and lysed with 2× Laemmli buffer. Cell extracts were heated at 95° C. for 5 min, sheared through a 26-gauge needle and quantified with a Nanodrop 2000 (Thermo Scientific). Protein lysates (˜100 μg) were resolved by SDS-PAGE electrophoresis and transferred onto PVDF membranes (Amersham). Membranes were blocked with 5% BSA, 0.1% Tween-20/TBS for 1 h. The blots were then probed with the relevant primary antibodies in 5% BSA, 0.1% Tween-20/TBS at 4° C. overnight with gentle agitation. Membranes were washed with 0.1% Tween-20/TBS for 30 min and were incubated with secondary antibodies for 1 h at RT. Antigens were detected by ECL (Amersham). Imaging was performed using a ChemiDoc™ XRS+ System (Biorad).

**Q.** “Transferrin: iron carrier protein taken up via transferrin receptor” was tested. Which “effect on TGF-beta-mediated induction of CD44^highCD24^Low/−” value (HMLER cells; with TGF beta) did it give?
**A.** potentiates the TGF-beta-mediated induction

**Q.** Which “effect of inhibitor on cell death induced by Sal or AM5” value (shortened to “effect of inhibitor”) (iCSCL-10A2 cells) does the source give for `CCOC(=O)c1ccc(NC2CCCCC2)c(N)c1` [ferrostatin-1] here?
**A.** partially prevented

**Q.** `COC(=O)C[C@H](NC(=O)[C@H](C)NC(=O)[C@@H](NC(=O)OCc1ccccc1)C(C)C)C(=O)CF` [Z-VAD-FMK] (Cbz-Val-Ala-Asp(OMe)-CH2F) was tested. Which “effect of inhibitor” value (iCSCL-10A2 cells) did it give?
**A.** no effect on the cell death profiles

**Q.** “TGF-31: cytokine that increases the CD44^high/CD24^Low/− population in HMLER cells” was tested. Which “percent of CD44^high/CD24^Low/− population” value (HMLER cells) did it give?
**A.** 21%

**Q.** How did the “effect of co-treatment on cell death induced by Sal and AM5” value (HMLER CD24^low cells [1]) turn out when `CC(=O)N[C@@H](CS)C(=O)O` [NAC, N-acetyl-L-cysteine] was run?
**A.** partly prevented Sal and AM5 from killing these cells

**Q.** Which “effect of inhibitor” value (iCSCL-10A2 cells) does the source give for `CN1C(=O)C(Cc2c[nH]c3ccccc23)NC1=S` (centres unmarked) [necrostatin-1] here?
**A.** no effect on the cell death profiles

**Q.** How did the tumor growth [2] turn out when `CC(=O)O[C@@]12CO[C@@H]1C[C@H](O)[C@@]1(C)C(=O)[C@H](O)C3=C(C)[C@@H](OC(=O)[C@H](O)[C@@H](NC(=O)OC(C)(C)C)c4ccccc4)C[C@@](O)([C@@H](OC(=O)c4ccccc4)[C@H]21)C3(C)C` [Doc, docetaxel, reference compound] was run?
**A.** less effective

**Q.** What about the “tumor-seeding capacity of tumor cells treated in vivo” value [3] of the same molecule?
**A.** lower response than treatment with either AM5 or AM5+Doc

**Q.** With `CCCNC(=O)[C@H]1O[C@@H]1C(=O)N[C@H](C(=O)N1CCC[C@H]1C(=O)O)[C@@H](C)CC` [CA-074] as the molecule, how does the “ferritin degradation under AM5, cathepsin B inhibition” value (HMLER CD24^low cells [4]) read?
**A.** degradation was prevented

B1: OSM: cytokine oncostatin M, implicated in inducing EMT (protein, UniProt P13725 26-221, looked up)
Oncostatin-M: AAIGSCSKEYRVLLGQLQKQTDLMQDTSRLLDPYIRIQGLDVPKLREHCRERPGAFPSEETLRGLGRRGFLQTLNATLGCVLHRLADLEQRLPKAQDLERSGLNIEDLEKLQMARPNILGLRNNIYCMAQLLDNSDTAEPTKAGRGASQPPTPTPASDAFQRKLEGCRFLHGYHRFMHSVGRVFSKWGESPNRSRR
**Q.** With B1 as the molecule, how does the “% of CD24^high population” value (MCF-7 cells [5]) read?
**A.** remains unchanged

**Q.** And the “% of CD44^high population” value (MCF-7 cells [5])?
**A.** 76%

**Q.** What about the “% of CD44^highCD24^Low/− CSC population” value (MCF-7 cells [5]) of the same molecule?
**A.** 4.84%

**Q.** And the ferritin protein level (MCF-7 cells [6])?
**A.** increase in ferritin protein level

**Q.** What about the “EMT marker protein levels” value (MCF-7 cells [6]; 72 h) of the same molecule?
**A.** increase of two EMT markers Fibronectin and Snail, and the decrease of E-cad protein levels
